Experimental data from ChEMBL document CHEMBL1155049, “Synthesis and cytotoxic activity of benzopyran-based platinum(II) complexes” (Bioorg Med Chem Lett, 2008).

Tests used:
Assay type in all cases: functional, cell-based
[1] = tested on: MDA-MB-468; assay: Cytotoxicity against estrogen receptor deficient human MDA-MB-468 cells after 72 hrs by MTT assay; details: MDA-MB-468, 72 h
[2] = tested on: MCF7; assay: Cytotoxicity against human MCF7 cells expressing estrogen receptor after 72 hrs by MTT assay; details: MCF7, 72 h
[3] = Cytotoxicity against estrogen receptor deficient human MDA-MB-436 cells after 72 hrs by MTT assay; details: MDA-MB-436, 72 h
[4] = tested on: MDA-MB-231; assay: Cytotoxicity against estrogen receptor deficient human MDA-MB-231 cells after 72 hrs by MTT assay; details: MDA-MB-231, 72 h

`COc1ccc2c(c1)OC(C)(C)[C@@H](c1ccccc1)[C@@H]2c1ccc(OCCCCCCNCCCc2ccccn2)cc1` gave an IC50 [1] of 7.61 µM, an IC50 [2] of 15.6 µM and an IC50 [3] of 15.7 µM. For the same compound, the IC50 [4] was 18.7 µM.
